Laboratory results as given in patent publication EP0222996A2, “3-Amino-dihydro(1)benzopyrane and benzothiopyrane” (CIBA-GEIGY AG, priority 1985, dated 1987).
Where a name gives a salt, the structure may show the parent alone. Read-outs that look alike come from different tables or passages of the source.

Biological target: T1, Serotonin-(S-1A) (Rattus norvegicus, UniProt P19327)
T1 construct: Suspensionen aus Membranmaterial von Rattenhirn; from tissue; host or cells: rat brain membranes
T1 sequence (P19327 1-422): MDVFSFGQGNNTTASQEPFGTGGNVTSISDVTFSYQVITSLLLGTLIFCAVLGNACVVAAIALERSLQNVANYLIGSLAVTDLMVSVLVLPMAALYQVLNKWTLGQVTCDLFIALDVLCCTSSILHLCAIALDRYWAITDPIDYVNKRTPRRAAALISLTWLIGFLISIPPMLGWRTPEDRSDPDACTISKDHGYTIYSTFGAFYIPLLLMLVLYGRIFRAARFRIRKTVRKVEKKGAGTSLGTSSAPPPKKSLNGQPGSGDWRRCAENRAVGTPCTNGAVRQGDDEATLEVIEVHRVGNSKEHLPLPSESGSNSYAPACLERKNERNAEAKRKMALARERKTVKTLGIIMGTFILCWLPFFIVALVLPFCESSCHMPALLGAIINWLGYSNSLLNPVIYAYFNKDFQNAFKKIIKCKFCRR
Test: 3H-serotonin binding assay on rat brain membrane suspensions
Parameters: species or system Ratten
From the text: Die Serotonin-(S-1A)-Aufnahme, welche für Regulatoren mit Rezeptor-eigenschaften bei Serotonin-Agonisten indiziert ist, kann in-vitro wie folgt in einem Bindungsassay nachgewiesen werden: • Man stellt Suspensionen aus Membranmaterial von Rattenhirn her und inkubiert diese mit ^3H-Serotonin gemäss der Vorschrift von Martin und Sanders-Bush, Naunyn-Schmiederberg Arch. Pharmacol. 321, 165 (1982) und Middlemiss und Fozard Eur. J. Pharmacol., 90, 151 (1983).
In diesem Bindungsassay werden aliquote Teile von […] Zellsuspensionen zu abgepufferten ^3H-Serotonin-Lösungen mit und ohne Wirkstoff gegeben. Die Konzentration an ^3H-Serotonin ist 2 nM und man wertet die zu testenden Wirkstoffe über einen weiten Konzentrationsbereich aus. Die IC50-Werte (Konzentrationen an Wirkstoff, welche zur Hemmung von 50 % 2 nM ^3H-Serotonin nötig sind) werden graphisch bestimmt.

| SMILES | IC50 (concentration needed to inhibit 50 % of 2 nM 3H-Serotonin, rat brain membranes, determined graphically, read-out: IC50-Werte) | IC50 |
| --- | --- | --- |
| CCCN(CCC)C1CSc2cccc(OCC)c2C1 (centres unmarked) [3,4-Dihydro-N,N-dipropyl-5-ethoxy-2H-[1]-benzothiopyran-3-amin-hydrochlorid] | ~21 nM | – |
| CCCN(CCC)C1COc2cccc(OCC)c2C1 (centres unmarked) [5-Aethoxy-N,N-dipropyl-3,4-dihydro-2H-[1]-benzopyran-3-amin-hydrochlorid] | – | ~40 nM |
